This note sets out measurements from ChEMBL document CHEMBL2424558, “Synthesis and biological evaluation of novel quinazoline derivatives obtained by Suzuki CC coupling” (2013).

The structures appear in SMILES notation. ≈ marks a conversion by molar mass, not a printed value.

Common to all, as to type: functional
Experiment [1] deals with Klebsiella pneumoniae. The experiment can be described thus: Antibacterial activity against Klebsiella pneumoniae MTCC 109. Conditions: for MIC: Klebsiella pneumoniae, MTCC 109.
The subject of experiment [2] is Escherichia coli. The experiment in a line: Antibacterial activity against Escherichia coli MTCC 739. Conditions: for MIC: Escherichia coli, MTCC 739.
The subject of experiment [3] is Staphylococcus aureus. The experiment can be described thus: Antibacterial activity against Staphylococcus aureus MTCC 96. Conditions: for MIC: Staphylococcus aureus, MTCC 96.
Experiment [4] has as its system Pseudomonas aeruginosa. The experiment can be described thus: Antibacterial activity against Pseudomonas aeruginosa MTCC 741. The settings on record: for MIC: Pseudomonas aeruginosa, MTCC 741.
Experiment [5] relates to Bacillus cereus. The experiment in a line: Antibacterial activity against Bacillus cereus MTCC 430. The settings on record: for MIC: Bacillus cereus, MTCC 430.
Experiment [6] concerns Mycobacterium tuberculosis. The experiment in a line: Antimycobacterial activity against Mycobacterium tuberculosis H37Rv. Conditions: for MIC: Mycobacterium tuberculosis, H37Rv.
Experiment [7] has as its system Aspergillus niger. The experiment in a line: Antifungal activity against Aspergillus niger MTCC 282. The settings on record: for MIC: Aspergillus niger, MTCC 282.
Experiment [8] deals with Candida albicans. The experiment in a line: Antifungal activity against Candida albicans MTCC 183. Conditions: for MIC: Candida albicans, MTCC 183.

For orientation: MIC means the lowest concentration found to suppress growth.

On to `Cc1cccc(Oc2nc(-c3ccc(NC(=S)Nc4ccccc4)cc3)nc3ccccc23)c1`, for which the “inhibition zone (IZ)” value worked out at 22 mm in experiment [1]; 26 mm in experiment [2]; 27 mm in experiment [3]; 25 mm in experiment [4]; 24 mm in experiment [5]; 23 mm in experiment [7]. The “inhibition zone (IZ)” value in experiment [8] is given as 25 mm. For the same compound, the MIC was 200 µg/mL (≈ 432 µM) in experiment [1]; 250 µg/mL (≈ 540 µM) in experiment [2]; 200 µg/mL (≈ 432 µM) in experiment [3]; 50 µg/mL (≈ 108 µM) in experiment [4]; 50 µg/mL (≈ 108 µM) in experiment [5]; 100 µg/mL (≈ 216 µM) in experiment [6]. The MIC in experiment [7] was 50 µg/mL (≈ 108 µM); in experiment [8] it was 200 µg/mL (≈ 432 µM). The “inhibition (INH)” value in experiment [6] turned out to be 95%.

As for `Cc1cccc(Oc2nc(-c3ccc(NC(=S)Nc4ccc(F)cc4)cc3)nc3ccccc23)c1`, the “inhibition zone (IZ)” value in experiment [1] was determined as 24 mm; in experiment [2], 27 mm; in experiment [3] it was 24 mm; in experiment [4] it was 25 mm; in experiment [5], 27 mm; in experiment [7], 22 mm. Besides, the “inhibition zone (IZ)” value in experiment [8] is recorded as 25 mm. Moreover, the MIC in experiment [1] worked out at 100 µg/mL (≈ 208 µM); in experiment [2] it was 25 µg/mL (≈ 52 µM); in experiment [3], 25 µg/mL (≈ 52 µM); in experiment [4], 50 µg/mL (≈ 104 µM); in experiment [5] it was 200 µg/mL (≈ 416 µM); in experiment [6], 50 µg/mL (≈ 104 µM). In addition, the results for the MIC in experiment [7] and in experiment [8] were 50 µg/mL (≈ 104 µM) and 6.25 µg/mL (≈ 13 µM), respectively. The “inhibition (INH)” value in experiment [6] worked out at 96%.

As for `Cc1cccc(Oc2nc(-c3ccc(NC(=O)Nc4ccc(Br)cc4)cc3)nc3ccccc23)c1`, the “inhibition zone (IZ)” value in experiment [1] is reported as 24 mm; in experiment [2], 27 mm; in experiment [3], 24 mm; in experiment [4], 25 mm; in experiment [5] it was 28 mm; in experiment [7] it was 22 mm. The “inhibition zone (IZ)” value in experiment [8] is recorded as 24 mm. The MIC in experiment [1] was 50 µg/mL (≈ 95.2 µM); in experiment [2] it was 62.5 µg/mL (≈ 119 µM); in experiment [3], 12.5 µg/mL (≈ 23.8 µM); in experiment [4], 25 µg/mL (≈ 47.6 µM); in experiment [5] it was 12.5 µg/mL (≈ 23.8 µM); in experiment [6], 25 µg/mL (≈ 47.6 µM). Besides, the MIC in experiment [7] worked out at 62.5 µg/mL (≈ 119 µM); in experiment [8] it was 50 µg/mL (≈ 95.2 µM). Further, the “inhibition (INH)” value in experiment [6] was found to be 99%.

Turning to `Cc1cccc(Oc2nc(-c3ccc(NC(=S)Nc4ccc(Cl)cc4)cc3)nc3ccccc23)c1`, the “inhibition zone (IZ)” value in experiment [1] worked out at 27 mm; in experiment [2], 27 mm; in experiment [3] it was 24 mm; in experiment [4], 26 mm; in experiment [5], 27 mm; in experiment [7], 24 mm. Further, the “inhibition zone (IZ)” value in experiment [8] is recorded as 28 mm. Moreover, the MIC in experiment [1] was determined as 25 µg/mL (≈ 50.3 µM); in experiment [2] it was 25 µg/mL (≈ 50.3 µM); in experiment [3] it was 12.5 µg/mL (≈ 25.1 µM); in experiment [4], 12.5 µg/mL (≈ 25.1 µM); in experiment [5], 50 µg/mL (≈ 101 µM); in experiment [6] it was 25 µg/mL (≈ 50.3 µM). For the same compound, the MIC in experiment [7] came out at 12.5 µg/mL (≈ 25.1 µM); in experiment [8] it was 25 µg/mL (≈ 50.3 µM). Besides, the “inhibition (INH)” value in experiment [6] stood at 98%.

For `Cc1cccc(Oc2nc(-c3ccc(NC(=O)Nc4ccc(Cl)cc4)cc3)nc3ccccc23)c1`, the “inhibition zone (IZ)” value in experiment [1] came out at 23 mm; in experiment [2], 27 mm; in experiment [3] it was 25 mm; in experiment [4], 24 mm; in experiment [5] it was 24 mm; in experiment [7], 26 mm. Moreover, in experiment [8], the “inhibition zone (IZ)” value came out at 21 mm. Besides, the MIC was 62.5 µg/mL (≈ 130 µM) in experiment [1]; 62.5 µg/mL (≈ 130 µM) in experiment [2]; 50 µg/mL (≈ 104 µM) in experiment [3]; 50 µg/mL (≈ 104 µM) in experiment [4]; 100 µg/mL (≈ 208 µM) in experiment [5]; 100 µg/mL (≈ 208 µM) in experiment [6]. Further, the figures for the MIC in experiment [7] and in experiment [8] were 200 µg/mL (≈ 416 µM) and 100 µg/mL (≈ 208 µM), respectively. Further, in experiment [6], the “inhibition (INH)” value stood at 98%.

Consider `Cc1cccc(Oc2nc(-c3ccc(NC(=S)Nc4ccc(Br)cc4)cc3)nc3ccccc23)c1`, for which the “inhibition zone (IZ)” value in experiment [1] is 27 mm; in experiment [2], 25 mm; in experiment [3], 29 mm; in experiment [4], 25 mm; in experiment [5], 26 mm; in experiment [7], 23 mm. Moreover, in experiment [8], the “inhibition zone (IZ)” value was found to be 27 mm. Moreover, the MIC in experiment [1] is 12.5 µg/mL (≈ 23.1 µM); in experiment [2], 50 µg/mL (≈ 92.3 µM); in experiment [3] it was 6.25 µg/mL (≈ 11.5 µM); in experiment [4] it was 25 µg/mL (≈ 46.2 µM); in experiment [5], 12.5 µg/mL (≈ 23.1 µM); in experiment [6] it was 12.5 µg/mL (≈ 23.1 µM). Besides, the MIC in experiment [7] was determined as 25 µg/mL (≈ 46.2 µM); in experiment [8] it was 12.5 µg/mL (≈ 23.1 µM). Moreover, the “inhibition (INH)” value in experiment [6] stood at 99%.

With `Cc1ccc(NC(=S)Nc2ccc(-c3nc(Oc4cccc(C)c4)c4ccccc4n3)cc2)cc1`, the “inhibition zone (IZ)” value is 21 mm in experiment [1]; 23 mm in experiment [2]; 22 mm in experiment [3]; 23 mm in experiment [4]; 21 mm in experiment [5]; 18 mm in experiment [7]. Besides, the “inhibition zone (IZ)” value in experiment [8] is 23 mm. Also, the MIC in experiment [1] is 50 µg/mL (≈ 105 µM); in experiment [2], 50 µg/mL (≈ 105 µM); in experiment [3] it was 50 µg/mL (≈ 105 µM); in experiment [4], 50 µg/mL (≈ 105 µM); in experiment [5] it was 200 µg/mL (≈ 420 µM); in experiment [6] it was 100 µg/mL (≈ 210 µM). The MIC in experiment [7] came to 200 µg/mL (≈ 420 µM); in experiment [8] it was 50 µg/mL (≈ 105 µM). Besides, the “inhibition (INH)” value in experiment [6] is 94%.
